The text below walks through data of patent US20250387379A1, “ARYL-ANILINE AND HETEROARYL-ANILINE COMPOUNDS FOR TREATMENT OF SKIN CANCERS” (NFLECTION THERAPEUTICS, INC., priority 2018, published 2025).

As a reminder, the pIC50 is the IC50 on a negative log10 scale, so that one unit is a factor of ten.

The structures appear in SMILES notation. pIC50: −log10 of the molar value.

Chain of MAP2K1 (MEK1) (Q02750 whole entry): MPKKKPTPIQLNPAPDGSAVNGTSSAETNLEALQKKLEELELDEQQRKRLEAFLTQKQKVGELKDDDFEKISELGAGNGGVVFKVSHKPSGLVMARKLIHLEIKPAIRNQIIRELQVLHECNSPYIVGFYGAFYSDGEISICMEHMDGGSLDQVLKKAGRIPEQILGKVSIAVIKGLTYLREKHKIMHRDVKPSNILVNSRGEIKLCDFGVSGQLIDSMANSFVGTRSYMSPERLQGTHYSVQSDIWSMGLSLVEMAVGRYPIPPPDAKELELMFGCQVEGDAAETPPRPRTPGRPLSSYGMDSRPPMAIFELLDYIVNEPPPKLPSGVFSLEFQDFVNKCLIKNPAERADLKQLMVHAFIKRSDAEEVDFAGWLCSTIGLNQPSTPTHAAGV

The first data set addresses MAP2K1 (MEK1) (Homo sapiens (Human), UniProt Q02750). The data set is described as follows: MEK Inhibition Assay-2 (Z'-LYTE biochemical assay; Example 5). Particulars: Table 6, Z'-LYTE procedure of Example 5; read-out: IC50 against MEK1. The method, then:
MEK1 inhibitory activity of compounds were tested using the following procedure (protocol available at thermofisher.com/content/dam/LifeTech/migration/files/drug-discovery/pdfs.par.60256.file.dat/20130430%20ssbk%20customer%20protocol%20and%20assay%20conditions.pdf). The Z′-LYTE biochemical assay (ThermoFisher) employs a fluorescence-based, coupled-enzyme format and is based on the differential sensitivity of phosphorylated and non-phosphorylated peptides to proteolytic cleavage.
Test compounds in 100% DMSO were screened in 1% DMSO (final) in the well. For 10 point titrations, 3-fold serial dilutions are conducted from the starting concentration of 30 μM.
After the 1 hour incubation, 5 μL of a 1:1024 dilution of Development Reagent A (available from Invitrogen, catalog no. PV3295) was added.
ATP solutions were diluted to a 4× working concentration in Kinase Buffer (50 mM HEPES pH 7.5, 0.01% BRIJ-35, 10 mM MgCl2, 1 mM EGTA). ATP Km apparent was previously determined using a Z′-LYTE assay. The Development Reagent was diluted in Development Buffer (available from Invitrogen, catalog no. P3127).
Assay Protocol: 2.5 μL of 4× test compound or 100 nL of 100× Test Compound plus 2.4 μL Kinase Buffer, 5 μL of the 2× Peptide/Kinase Mixture, 2.5 μL of 4×ATP Solution were added to the plates and placed on a shake plate for 30-seconds. The kinase reaction was allowed to proceed for 60-minute at room temperature, before 5 μL of Development Reagent Solution was added, and the mixture agitated for 30-seconds on a shake plate. The mixture was incubated for 60-minute at room temperature. Fluorescence was measured using a plate reader and the data were analyzed.
This control yielded 100% cleaved peptide in the Development Reaction. The 100% Phosphorylation Control, which consisted of a synthetically phosphorylated peptide of the same sequence as the peptide substrate, was designed to allow for the calculation of percent phosphorylation. This control yielded a very low percentage of cleaved peptide in the Development Reaction. The 0% Phosphorylation and 100% Phosphorylation Controls allow for the calculation of the percent phosphorylation achieved in a specific reaction well.
The minimum emission ratio in a screen was established by the 0% Inhibition Control, which contained active kinase. This control was designed to produce a 10-50% phosphorylated peptide in the Kinase Reaction. Cascade assays may produce up to 70% phosphorylated peptide.
A known inhibitor control standard curve, 10 point titration, was run for each individual kinase on the same plate as the kinase to ensure the kinase was inhibited within an expected IC50 range previously determined.
The following controls are prepared for each concentration of Test Compound assayed. […] The expected value for a non-interfering compound should be 100%. Any value outside of 90% to 110% was flagged. […] The expected value for a non-fluorescence compound should be 0%. Any value >20% was flagged.
The data in Table A was calculated. XLfit from IDBS was used. The dose response curve was curve fit to model number 205 (sigmoidal dose-response model).
Turning to `O=c1c2c(Nc3ccc(I)cc3F)cncc2ccn1C[C@H](O)CO` [Compound 5.002], the pIC50 was no less than 6.82.
Same read-out and setting: the figure for `COC(=O)Cn1ccc2cncc(Nc3ccc(I)cc3F)c2c1=O` [Compound 5.005] is less than 5.82; for `NCCONC(=O)c1c(Nc2ccc(I)cc2F)sc2c1CCCC2=O` [Compound 4.033] it is no less than 6.82.
Still for that read-out and setting: the figure for `N#Cc1ccc(C(=O)NOCC2CC2)c(Nc2ccc(I)cc2F)c1F` [Compound 1.031] is no less than 6.82.
On the same count and under the same terms, under `N#Cc1ccc(C(=O)NO)c(Nc2ccc(I)cc2F)c1` [Compound 1.017] stands no less than 6.82.
Consider `COC(=O)CCONC(=O)c1ccc(C#N)cc1Nc1ccc(I)cc1F` [Compound 1.022], for which the pIC50 was less than 5.82.
On to `N#Cc1ccc(C(=O)NOCCO)c(Nc2ccc(I)cc2F)c1` [Compound 1.010], for which the pIC50 was no less than 6.82.
The same measure, in the same setting: under `O=C1CCCc2c1sc(Nc1ccc(I)cc1F)c2C(=O)NOC[C@H](O)CO` [Compound 4.030] stands no less than 6.82.
With `O=C1CCCc2c1sc(Nc1ccc(I)cc1F)c2C(=O)NOCCO` [Compound 4.029], the pIC50 was no less than 6.82.
The same measure, in the same setting: the figure for `N#Cc1ccc(C(=O)NOCCO)c(Nc2ccc(I)cc2F)c1F` [Compound 1.030] is no less than 6.82; for `N#Cc1ccc(C(=O)N2CC(O)C2)c(Nc2ccc(I)cc2F)c1` [Compound 1.002] it is less than 5.82.
Same read-out and setting: the figure for `O=C1CCCc2c1sc(Nc1ccc(I)cc1F)c2C(=O)NC[C@@H](O)CO` [Compound 4.035] is no less than 6.82; for `O=c1c2c(Nc3ccc(I)cc3F)cncc2ccn1C[C@@H](O)CO` [Compound 5.001] it is no less than 6.82; for `O=C1CCCc2c1sc(Nc1ccc(I)cc1F)c2C(=O)NC[C@H](O)CO` [Compound 4.034] it is no less than 6.82.
On the same count and under the same terms, under `O=C1CCCc2c1sc(Nc1ccc(I)cc1F)c2C(=O)NOCC1CC1` [Compound 4.032] stands no less than 6.82; under `O=C(O)Cn1ccc2cncc(Nc3ccc(I)cc3F)c2c1=O` [Compound 5.004], less than 5.82.

The test system of the next data set is skin tumors.
Assay: not given
Particulars: oral; trametinib 2 mg/kg/day, cobimetinib 10 mg/kg/day; chronic, low-dose, solar simulated UV light; cited from earlier work.
Take `CC(=O)Nc1cccc(-n2c(=O)n(C3CC3)c(=O)c3c(Nc4ccc(I)cc4F)n(C)c(=O)c(C)c32)c1` [trametinib]: the “reduction of skin tumors” value is on record as “effective in reducing skin tumors”.
In the case of `O=C(c1ccc(F)c(F)c1Nc1ccc(I)cc1F)N1CC(O)([C@@H]2CCCCN2)C1` [cobimetinib], the “reduction of skin tumors” value was “effective in reducing skin tumors”.

Test system in the next data set: not given
Assay: not given
Particulars: topical application; cited from earlier work.
Consider `CC(C)Cn1cnc2c(N)nc3ccccc3c21` [imiquimod, Imiquimod], for which the “patients who experienced at least 1 adverse event ranging from mild to severe” value is “Up to 100%”.
Turning to `O=c1[nH]cc(F)c(=O)[nH]1` [5-fluorouracil], the “patients who experienced at least 1 adverse event ranging from mild to severe” value is given as no more than 97%.

The test system of another data set is cutaneous squamous-cell carcinoma tumors.
Assay: not given
Particulars: topical delivery.
For `Cn1c(Nc2ccc(I)cc2F)c(C(=O)NOCCO)c2cccnc21` [Compound 2.003], the “body weight loss of treated mice” value is “none of the mice lost weight”.

The same data set, now with this note: topical gel 0.01%, 0.15%, 0.5% by weight, 30 day course of treatment, first 12 mice.
For the compound `Cn1c(Nc2ccc(I)cc2F)c(C(=O)NOCCO)c2cccnc21` [Compound 2.003], the “tumor formation versus topical vehicle (placebo)” value was “mice treated with the topical vehicle (placebo) formed substantially more tumors than those treated with Compound 2.003 at all concentrations”.

The data set is the same for the next values; noted with them: topical gel 0.5%, 0.15%, 0.01%, FIG. 5.
As to `Cn1c(Nc2ccc(I)cc2F)c(C(=O)NOCCO)c2cccnc21` [Compound 2.003], the “tumor induction (new tumors per mouse)” value is given as “completely suppress tumor induction”.

The same data set, now with this note: topical gel 0.5%, 0.15%, 0.01%, FIG. 6.
As for `Cn1c(Nc2ccc(I)cc2F)c(C(=O)NOCCO)c2cccnc21` [Compound 2.003], the “size of existing tumors (tumor volume per mouse)” value is on record as “reduce the size of existing tumors”.
